Data on one molecule can be found in paper PMC4061482 (Frontiers in Oncology, 2014).

Like-named read-outs stand apart in the source and are kept apart here.

For data set [1], the target named is T1, AKR1C3 (Homo sapiens, UniProt P42330).
T1 sequence (P42330 1-323): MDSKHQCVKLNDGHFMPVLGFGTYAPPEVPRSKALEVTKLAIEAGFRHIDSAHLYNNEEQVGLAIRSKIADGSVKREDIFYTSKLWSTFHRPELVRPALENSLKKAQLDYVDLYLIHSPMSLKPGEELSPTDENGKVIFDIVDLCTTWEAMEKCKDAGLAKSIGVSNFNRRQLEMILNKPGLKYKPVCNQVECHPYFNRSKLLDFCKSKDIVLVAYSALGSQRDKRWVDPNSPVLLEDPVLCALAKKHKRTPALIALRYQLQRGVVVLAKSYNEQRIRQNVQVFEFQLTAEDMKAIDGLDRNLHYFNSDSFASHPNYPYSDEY
Kind of data set: 11β-PGF2α formation from PGD2 by ELISA in the cell line panel. Format: cell-based. Conditions: 10 μM; all cell lines that expressed AKR1C3; 28 nM PGD2, 24 h. The method, then:
Cells were seeded into 96-well plates in hormone-deprived media at appropriate seeding densities [10,000–50,000 cells per well for all lines except HCC1500 (100,000 cells per well; 11β-PGF2α ELISA)] to reach approximately 70% confluency at the time of sampling and were left to settle for 24 h at 37°C and 5% CO2. Inhibitors were added to the plates at single or multiple concentrations for 1 h prior to administration of equimolar (28 nM) concentrations of PGD2 (11β-PGF2α ELISA), androstenedione (testosterone ELISA), or estrone (17β-estradiol ELISA). The plates were returned to the incubator for a further 24 h before cell supernatant was removed for analysis of 11β-PGF2α, testosterone, or 17β-estradiol by ELISA as per manufacturer’s instructions (11β-PGF2α and testosterone ELISA, Cayman Chemical Company; 17β-estradiol ELISA, Oxford Biomedical Research), and cells were fixed for sulforhodamine B analysis as described below. Each ELISA plate was read at a wavelength of 405 nm (11β-PGF2α and testosterone) or 650 nM (17β-estradiol) on a SpectraMax M2 microplate reader (Molecular Devices) and quantitated against a standard curve generated in hormone-deprived culture media. […]
The PGD2 11-ketoreductase activity of AKR1C3 was determined by stimulating the cell line panel with PGD2 for 24 h, then detecting 11β-PGF2α levels by ELISA.

The test system of data set [2] is 22RV1 cells. Kind of data set: Testosterone ELISA after androstenedione stimulation. The class given is cell-based, human. The method, then:
Cells were seeded into 96-well plates in hormone-deprived media at appropriate seeding densities [10,000–50,000 cells per well for all lines except HCC1500 (100,000 cells per well; 11β-PGF2α ELISA)] to reach approximately 70% confluency at the time of sampling and were left to settle for 24 h at 37°C and 5% CO2. […] removed for analysis of 11β-PGF2α, testosterone, or 17β-estradiol by ELISA as per manufacturer’s instructions (11β-PGF2α and testosterone ELISA, Cayman Chemical Company; 17β-estradiol ELISA, Oxford Biomedical Research), and cells were fixed for sulforhodamine B analysis as described below. Each ELISA plate was read at a wavelength of 405 nm (11β-PGF2α and testosterone) or 650 nM (17β-estradiol) on a SpectraMax M2 microplate reader (Molecular Devices) and quantitated against a standard curve generated in hormone-deprived culture media. Cross-reactivity to PGD2, androstenedione, or estrone was accounted for by adding these to cell-free wells of each ELISA plate.
Since AKR1C3 has been implicated in the development of CRPC because of its ability to produce testosterone intratumorally from circulating androstenedione, we determined testosterone concentrations in the prostate cancer cell lines and known high and low AKR1C3-expressing cells after stimulation with androstenedione for 24 h.
On the technique in general: In an ELISA, binding on a coated surface is turned into a signal by an enzyme label.

For data set [3], the system named is 22RV1 cells. Description: PSA concentration after androstenedione stimulation. Conditions: Homo sapiens, 10 nM androstenedione, 24 h, read-out: Inhibition of PSA formation attributable to androstenedione stimulation. The class given is cell-based. The method, then:
(§1) Cells were seeded at 20,000 cells per well (LAPC4, LAPC4 AKR1C3) or 50,000 cells per well (22RV1) into 96-well plates in hormone-deprived media and left to settle for 24 h at 37°C and 5% CO2. […] The plates were returned to the incubator for 24 h, before the cell supernatant was removed and frozen for PSA analysis. Determination of total PSA concentration was carried out at LabPLUS, Auckland City Hospital, by immunoassay on a Cobas® e601 analyzer according to manufacturer’s instructions (Roche).
(§2) Next, PSA expression was determined in the CRPC cell lines that were sensitive to SN33638-mediated inhibition of testosterone (LAPC4 AKR1C3 and 22RV1 with LAPC4 wild-type cells acting as a negative control) as a biomarker of AR activity. […] Androstenedione stimulation promoted PSA production in all three cell lines, with the highest PSA levels observed in LAPC4 AKR1C3 cells.

The test system of a further data set is LAPC4 AKR1C3 cells. The data set is described as above. The class given is cell-based. As to conditions: Homo sapiens, LAPC4, 24 h, read-out: Inhibition of PSA formation attributable to androstenedione stimulation. The method, then: as §1, §2
The test system of the next data set is LAPC4 wild-type cells. The description is as above. As to conditions: 10 μM; androstenedione up to 10 nM, 24 h. The class given is cell-based, human. The method, then: as §1, §2
In the next data set the test system is MCF7 cells. Kind of data set: Cell proliferation (sulforhodamine B), 5 days. The class given is cell-based, human. The method, then:
(§3) Cells were seeded into 96-well plates in hormone-deprived media at appropriate seeding densities (5000–20,000 cells per well) to reach approximately 70% confluency at the time of sampling and left to settle for 48 h at 37°C and 5% CO2. […] The plates were returned to the incubator for 5 days before fixing in 10% trichloroacetic acid (Merck Millipore) at 4°C for 1 h and staining with 0.4% sulforhodamine B (Sigma-Aldrich) in 1% acetic acid for 30 min in the dark at room temperature. Plates were washed in 1% acetic acid, dried, and incubated with unbuffered Tris base (10 mM; Serva) for 30 min on a plate shaker in the dark to solubilize the stain. The plates were read on a BioTek EL808 microplate reader at an absorbance of 490 nm with a reference wavelength of 450 nm.
(§4) Finally, we investigated whether inhibiting AKR1C3-dependent testosterone or 17β-estradiol production could prevent androstenedione- or estrone-stimulated cell proliferation in CRPC or ER-positive breast cancer cells.
Neither androstenedione nor estrone-stimulated cell proliferation in the HCT116 AKR1C3 and wild-type cell lines (data not shown).

The next data set has as its system all cell lines. Kind of data set: Unstimulated cell proliferation (sulforhodamine B), 5 days, all cell lines. As to conditions: 10 μM, all cell lines except MCF7. Format: cell-based, human. The protocol:
as §3, §4

The next data set relates to other AKR1C isoforms. Kind of data set: Inhibition of isolated AKR1C enzymes. The class given is biochemical. As to conditions: 10 μM; unpublished data.
Data set [4] has as its system AKR1C3. Also noted: method as in PMID 23454516. As to conditions: cited from earlier work.

As to `CC1CCCCN1S(=O)(=O)c1ccc(N2CCCC2=O)cc1` (stereo not drawn) [SN33638], the “Reduction of 11β-PGF2α levels” value at AKR1C3 [1] is on record as no less than 80%. In addition, the “Effect on testosterone levels” value in the data set with 22RV1 cells [2] (5 days after stimulation with up to 10 nM androstenedione, data not shown) is “no inhibitory effect”. For the same molecule, the inhibition at 10 µM in the data set on 22RV1 cells [2] (Homo sapiens, 22Rv1, 10 μM, 28 nM androstenedione, 24 h, read-out: Inhibition of testosterone levels) is 50.8%; in the data set on 22RV1 cells [3], 44.9%; in the data set on LAPC4 AKR1C3 cells (1 nM androstenedione) it was 90.8%; with LAPC4 AKR1C3 cells (10 nM androstenedione), 57.4%; in the data set on MCF7 cells (Homo sapiens, MCF7, 120 h, 10 nM estrone, read-out: Inhibition of estrone-stimulated cell proliferation), 14.9%. In the data set with LAPC4 wild-type cells, the “Effect on PSA formation” value is given as “no significant effect”. Moreover, the “Reduction of unstimulated cell proliferation” value in the data set on MCF7 cells (10 μM) stood at 7.3%. For the same molecule, the “Effect on unstimulated cell proliferation” value in the data set on all cell lines was “no effect”. For the same molecule, in the data set with other AKR1C isoforms, the “Inhibition against each isolated enzyme (other AKR1C isoforms)” value is listed as less than 14%. For the same molecule, the “Potency against AKR1C3” value with AKR1C3 [4] is reported as “low nanomolar”.
